System: lactic acid bacteria group (mainly, Lactobacillus spp.)
Experiment: Addition test of γ-PGA and fructo-oligosaccharide to human feces suspension
Format: cell-based
Settings: human feces suspension in PBS medium, anaerobic culture 37° C. 4 days, quantitative PCR, 0.1-1.0% γ-PGA, 0.5% FOS, n=6
Protocol: The PBS solutions of Examples and Comparative Examples shown in Table 1 were prepared and used as media for feces culture. PBS alone was used as a negative control. As γ-PGA, polyglutamic acid “CALTAKE” manufactured by Ajinomoto Co., Inc. was used, and as FOS, fructo-oligosaccharide manufactured by Wako Pure Chemical Industries, Ltd. was used.
Thereafter, 10 ml each was dispensed into glass vials and the glass vials were sterilized by autoclave, made anaerobic, and sealed with a butyl rubber stopper. The feces suspension was prepared by collecting about 10 g of feces from 6 healthy individuals (3 men and 3 women) in their 20s to 40s and suspending same in 80 ml of anaerobic PBS. […] DNA was extracted from this pellet using ISOFECAL for BeadsBeat (manufactured by NIPPON GENE CO., LTD.), and quantitative PCR was performed using GeneAce SYBR qPCR Mix α (manufactured by NIPPON GENE CO., LTD.). Quantitative PCR was performed under the conditions of 45 cycles of 95° C. for 30 sec and 60° C. for 60 sec after 95° C. for 10 min. Primers for quantitative PCR used for detection of lactic acid bacteria group (mainly, Lactobacillus spp.) were as follows.
Using the results obtained by quantitative PCR, the relative amount when PBS alone (negative control) is 1 was calculated, and the results were normalized with z-score. […]

## γ-polyglutamic acid [γ-PGA]
  proliferation of the lactic acid bacteria group: not observed

Source: patent US11273169B2, “Food for improving intestinal environment” (AJINOMOTO CO., INC., priority 2017, dated 2022)
